Data on two compounds can be found in patent US8212016B2, “NPC1L1 orthologues” (Schering Corporation, priority 2006, dated 2012).

SMILES strings stand for the structures. Read-outs that look alike come from different tables or passages of the source.

The Ki is the dissociation constant of the complex between target and ligand, obtained from inhibition or displacement. As a reminder, the ED50 is the midpoint of the dose-response relation.

The target in one series is monkey NPC1L1 (Macaca mulatta, UniProt A0MJA5). Description: Fluorescence NPC1L1 binding assay, HEK-293 cells, BODIPY-labeled compound 1. More on the design: species or system rhesus monkey. The procedure: (§1) Cell Culture and Membrane Preparation. Each plasmid pCR3.1 harboring NPC1L1 was prepared using standard molecular biology protocols. Stable cell lines expressing human, rhesus monkey, mouse, rat, hamster, canine or rabbit NPC1L1 were generated using Lipofectamine 2000 transfection reagent in HEK-293 cells according to the manufacturer's protocol. Cells were maintained in DMEM supplemented with 10% FBS, 100 U/ml pen/strep, and 500 μg/ml geneticin at 37° C., 5% CO2. All cell culture reagents were obtained from Invitrogen Life Technologies, (Carlsbad, Calif.). Cell membranes were prepared by lysing cells in 5 mM HEPES with protease inhibitors (Complete™ Protease Inhibitor Cocktail Tablets; Roche Diagnostics Corp., Indianapolis Ind.) for 15 min at 4° C. A membrane pellet was obtained by centrifuging the cell lysates at 12,000×g for 25 min. The membranes were resuspended in 5 mM HEPES with protease inhibitors and triturated with a 21G needle.
(§2) Fluorescence. Cells were plated into 384-well black/clear plates (BD Biosciences, Bedford Mass.) for binding experiments the following day. The media was aspirated. […] Media (20 μl) containing the indicated concentration of compound was then added to the wells. […] The binding reaction was allowed to proceed for 4 hours at 37° C. Subsequently the media was aspirated and the cells washed once with PBS.

A further series deals with canine NPC1L1 (Canis lupus familiaris, UniProt A0MJA4). The series is described as above. The procedure: as §1, §2
The next series deals with hamster NPC1L1 (Mesocricetus auratus, UniProt A0MJA8). The series is described as above. The procedure: as §1, §2
In another series the target is T1, human NPC1L1 (Homo sapiens, UniProt Q9UHC9, T1073A).
T1 construct: expressed in transfected cells
T1 sequence (Q9UHC9 22-1332 isoform Q9UHC9-2 T1046A): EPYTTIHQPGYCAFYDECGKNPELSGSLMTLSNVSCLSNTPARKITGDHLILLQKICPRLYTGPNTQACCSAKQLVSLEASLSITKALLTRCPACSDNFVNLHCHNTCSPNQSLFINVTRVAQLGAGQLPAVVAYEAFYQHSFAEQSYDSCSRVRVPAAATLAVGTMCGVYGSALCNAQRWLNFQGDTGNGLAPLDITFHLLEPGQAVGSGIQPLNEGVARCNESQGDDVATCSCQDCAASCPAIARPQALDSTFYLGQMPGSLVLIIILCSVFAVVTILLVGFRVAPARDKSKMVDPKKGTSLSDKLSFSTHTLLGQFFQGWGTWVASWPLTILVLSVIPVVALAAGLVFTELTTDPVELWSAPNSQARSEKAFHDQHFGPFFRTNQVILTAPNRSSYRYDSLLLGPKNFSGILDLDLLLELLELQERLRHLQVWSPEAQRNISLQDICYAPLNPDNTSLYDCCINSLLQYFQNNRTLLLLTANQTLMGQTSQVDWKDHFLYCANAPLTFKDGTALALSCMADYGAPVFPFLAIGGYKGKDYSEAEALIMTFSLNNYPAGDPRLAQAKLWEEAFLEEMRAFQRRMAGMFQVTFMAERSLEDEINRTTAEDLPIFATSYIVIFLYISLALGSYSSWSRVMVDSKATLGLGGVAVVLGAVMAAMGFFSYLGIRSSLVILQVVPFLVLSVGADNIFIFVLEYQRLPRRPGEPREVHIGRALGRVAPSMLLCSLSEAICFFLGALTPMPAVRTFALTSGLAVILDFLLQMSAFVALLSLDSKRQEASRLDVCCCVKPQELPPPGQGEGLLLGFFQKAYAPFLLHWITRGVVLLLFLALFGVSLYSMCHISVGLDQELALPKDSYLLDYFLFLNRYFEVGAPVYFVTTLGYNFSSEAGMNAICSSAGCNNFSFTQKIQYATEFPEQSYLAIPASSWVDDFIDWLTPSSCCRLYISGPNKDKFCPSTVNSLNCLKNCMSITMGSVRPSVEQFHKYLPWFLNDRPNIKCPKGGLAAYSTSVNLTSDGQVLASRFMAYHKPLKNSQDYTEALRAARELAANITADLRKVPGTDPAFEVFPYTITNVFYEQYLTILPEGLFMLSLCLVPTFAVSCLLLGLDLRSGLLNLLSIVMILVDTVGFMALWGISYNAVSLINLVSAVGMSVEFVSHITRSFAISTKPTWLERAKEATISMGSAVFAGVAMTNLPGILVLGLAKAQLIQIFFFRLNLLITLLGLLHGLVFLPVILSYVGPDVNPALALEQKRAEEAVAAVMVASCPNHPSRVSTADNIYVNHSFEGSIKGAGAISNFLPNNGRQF
The series is described as above. The procedure:
as §1, §2

A further series concerns the target rabbit NPC1L1 (Oryctolagus cuniculus, UniProt A0MJA7). The description is as above. The procedure: as §1, §2
Another series addresses T2, rat NPC1L1 (Rattus norvegicus, UniProt Q6T3U3, A349V/E317P/G318E/K324N/L297S).
T2 construct: expressed in transfected cells
The series is described as above. The procedure:
as §1, §2

The next series concerns the target T3, mouse NPC1L1 (Mus musculus, UniProt Q6T3U4, N476K).
T3 construct: expressed in transfected cells
As to the kind of experiment: Fluorescence NPC1L1 binding assay, HEK-293 cells, fluorescent compound 2 as ligand. The procedure: as §1, §2
In an effort to show binding to mouse NPC1L1, several related ezetimibe analogs were examined as possible alternatives to fluorescently-labeled (BODIPY) ezetimibe glucuronide (compound 1) in the binding assay. Compound 2, which is a fluorescently labeled synthetic precursor for fluorescently-labeled (BODIPY) ezetimibe glucuronide (compound 1; Burnett et al., Bioorganic and Medicinal Chemistry Letters 12:315-318 (2002)), was identified as a viable option for detection of mouse NPC1L1 binding. Compound 2 contains a methyl ester substitution for the carboxylic acid on the glucuronide portion of the molecule (compound structures shown in FIG. 4A).

The test system of series [1] is cholesterol absorption. Description: In vivo potency of ezetimibe (ED50). Particulars: Primates, Monkey.
For series [2], the system named is cholesterol absorption. As to the kind of experiment: In vivo potency of ezetimibe (ED50). Particulars: Mesocricetus auratus, Hamster.
The test system of series [3] is cholesterol absorption. Description: In vivo potency of ezetimibe (ED50). Particulars: Canis lupus familiaris, Canine.
Series [4] concerns cholesterol absorption. As to the kind of experiment: In vivo potency of ezetimibe (ED50). Particulars: Rat.
The subject of series [5] is cholesterol absorption. Description: In vivo potency of ezetimibe (ED50). To be noted: Mouse.
Series [6] has as its system ^14C-cholesterol absorption. Description: Acute cholesterol absorption assay. The class given is in vivo. Particulars: intraduodenal. The procedure: Acute cholesterol absorption assay. ^14C-cholesterol absorption was determined acutely in rats using conditions previously described (Van Heek et al., J. Pharmacol. Exp. Ther. 283: 157-163 (1997)). Compounds were dissolved in rat bile and delivered (1.0 ml) intraduodenally by bolus injection via an intestinal catheter, followed by 1.0 ml saline rinse (0.9%). Following a 30 min incubation, a cholesterol emulsion containing 3 mg cholesterol and 2 μCi ^14C-cholesterol (3 ml) was delivered to each rat as a bolus via intestinal catheter, followed by 1 ml saline rinse. Animals were sacrificed 90 min later and ^14C-cholesterol levels in plasma, liver, intestinal contents, and intestinal wall were determined.

Series [7] concerns plasma and liver cholesterol. Description: Percent cholesterol lowering in plasma and liver. The class given is in vivo. Particulars: hamster.
For series [8] the following is noted: following oral administration; cited from earlier work.
The conditions of series [9]: intraduodenal delivery, first pass metabolism in the intestine; cited from earlier work.
In series [10] the test system is NPC1L1 orthologs of multiple species. Description: Binding to NPC1L1 orthologs of multiple species. To be noted: NPC1L1 orthologs of the species tested. The procedure: as §1, §2
The test system of the next series is cholesterol. Description: In vivo cholesterol lowering activity.

With `O=C1[C@H](CC[C@H](O)c2ccc(F)cc2)[C@@H](c2ccc(O)cc2)N1c1ccc(F)cc1` [compound 3, ezetimibe], the Ki on monkey NPC1L1 (Monkey NPC1L1, competition with compound 1, read-out: Ki) was 900 nM; on canine NPC1L1 (Canine NPC1L1, competition with compound 1, read-out: Ki), 770 nM; on canine NPC1L1 (Table 3, Dog, read-out: Ki Dog NPC1L1), 770 nM; on hamster NPC1L1 (Hamster NPC1L1, competition with compound 1, read-out: Ki), 1530 nM; on hamster NPC1L1 (Table 3, Hamster, read-out: Ki Hamster NPC1L1), 1530 nM; at human NPC1L1 (Human NPC1L1, competition with compound 1, read-out: Ki) it was 2240 nM. For the same compound, the Ki at rabbit NPC1L1 (Rabbit NPC1L1, competition with compound 1, read-out: Ki) stood at 2120 nM; on rabbit NPC1L1 (Table 3, Rabbit, read-out: Ki Rabbit NPC1L1), 2100 nM; at rat NPC1L1 (Rat NPC1L1, competition with compound 1, read-out: Ki) it was 970 nM; at mouse NPC1L1 (Mouse NPC1L1, competition with compound 2, read-out: Ki) it was 5.4 µM; on mouse NPC1L1 (Table 3, Mouse, read-out: Ki Mouse NPC1L1), 9 µM. Further, the ED50 in the series with cholesterol absorption [1] amounted to 0.5 µg/kg; in the series on cholesterol absorption [2] it was 0.04 mg/kg; with cholesterol absorption [3], 7 µg/kg; with cholesterol absorption [4], 0.03 mg/kg; with cholesterol absorption [5], 0.7 mg/kg; in [6] (rat, read-out: rat ED50, inhibition of cholesterol absorption), 1.6 µg/kg. Further, the “cholesterol lowering Liver” value in series [7] is on record as 96%. Also, the “cholesterol lowering Plasma” value in [7] came out at 26%. In [8], the “fraction of ezetimibe glucuronidated” value is listed as 90%. The “fraction of compound in portal plasma that is the glucuronide compound 4” value in series [9] was greater than 95%.
`COc1ccc(N2C(=O)[C@H](CCCc3ccccc3)[C@H]2c2ccc(F)cc2)cc1` [compound 9]: on monkey NPC1L1 (Table 3, Monkey), the “Ki Monkey NPC1L1” value was “In- active”. The “Ki Dog NPC1L1” value at canine NPC1L1 (Table 3, Dog) is on record as “In- active”. At hamster NPC1L1 (Table 3, Hamster), the “Ki Hamster NPC1L1” value is given as “In- active”. On human NPC1L1 (Table 3, Human), the “Ki Human NPC1L1” value was “In- active”. Further, the “Ki Rabbit NPC1L1” value at rabbit NPC1L1 (Table 3, Rabbit) is “In- active”. Further, the “Ki Rat NPC1L1” value at rat NPC1L1 (Table 3, Rat) is “In- active”. The “Ki Mouse NPC1L1” value on mouse NPC1L1 (Table 3, Mouse) is given as “In- active”. The “rat ED50, inhibition of cholesterol absorption” value in series [6] is listed as “In- active”. For the same compound, in series [7], the “cholesterol lowering Liver” value is reported as “In- active” and the “cholesterol lowering Plasma” value is recorded as “In- active”. Besides, the NPC1L1 binding activity entry in series [10] is “total loss”. In addition, the “in vivo cholesterol lowering activity” value in the series on cholesterol is listed as “no in vivo cholesterol lowering activity”.
